One data set deals with T1, Bcl-XL (Homo sapiens, UniProt Q07817).
T1 construct: made in house
Put plainly: Fluorescence polarization (FP) competition binding assay, Bcl-XL. The text has this:
(§1) With the stability improved, the mechanism of action of compound 1 was studied to determine whether compound 1 would retain the same mechanism of HA 14-1 as an antagonist against anti-apoptotic Bcl-2 proteins. Table 1 summarizes the binding interaction of compound 1 with three anti-apoptotic Bcl-2 proteins by following an established fluorescence polarization competition assay (see Doshi, J. M.; Tian, D.; Xing, C. J. Med. Chem. 2006, 49, 7731-7739).
(§2) To explore whether compound 3 functioned the same as HA 14-1 in inducing cell death, compound 3 was tested for its binding interactions with recombinant Bcl-2, Bcl-XL, and Bcl-w proteins. This was done by using the FP based competition binding assay (see below).
(§3) The binding interactions of the test compound with Bcl-2, Bcl-XL and Bcl-w proteins were evaluated using the respective recombinant proteins. The preparation of these recombinant Bcl-2 proteins and fluorescently labeled Bak peptide has been detailed previously (see Doshi, J. M.; Tian, D.; Xing, C. J. Med. Chem. 2006, 49, 7731). The assays were conducted via an optimized protocol established in the laboratory using a GENios Pro plate reader (Tecan US, NC) with all assays performed in triplicate, each assay performed twice (see Doshi, J. M.; Tian, D.; Xing, C. J. Med. Chem. 2006, 49, 7731).

The next data set has as its target T2, Bcl-w (Homo sapiens, UniProt Q92843).
T2 construct: made in house
T2 sequence (Q92843 1-193): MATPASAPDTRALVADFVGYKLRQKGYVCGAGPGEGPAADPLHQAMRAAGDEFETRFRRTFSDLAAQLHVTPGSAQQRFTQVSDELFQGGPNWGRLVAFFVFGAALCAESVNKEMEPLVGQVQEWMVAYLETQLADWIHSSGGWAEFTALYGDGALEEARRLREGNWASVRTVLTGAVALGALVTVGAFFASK
Put plainly: Fluorescence polarization (FP) competition binding assay, Bcl-w.
Description: as §1, §2, §3

The subject of data set [1] is Jurkat cells. The experiment in a line: In vitro cytotoxicity assay (GI50) with fresh and incubated samples. It counts as cell-based. To be noted: for loss of cytotoxicity after incubation: one hour incubation, FIG. 6; for increase of GI50 after incubation: 24-hour incubation in cell culture media at 37° C., FIG. 1. The protocol:
Compound 1 (Example 2) was first evaluated for its stability under physiological conditions. In brief, compound 1 was incubated in cell culture media at 37° C. for 24 hours and the in vitro cytotoxicity was determined. HA 14-1 was run in parallel for comparison.
The stability of compound 3 (Example 1) was evaluated using the in vitro cytotoxicity assay described below.
The in vitro cytotoxicity of the test compound was assayed by determining the GI50s (the concentration of the compound required to inhibit cell growth by 50%). In brief, Jurkat cells at a density of 10^4 cells/well were plated in a 96-well plate. A series of 3-fold dilution of the test compound with 1% DMSO in the final cell media was used for the cell treatment (cells treated with media containing 1% DMSO served as a control). An identical set of the test compounds was incubated at 37° C. for the specified time and used along with freshly prepared samples for the cell-viability assay. After 24-hour treatment, the relative cell viability in each well was determined by using CellTiter-Blue Cell Viability Assay kit (a fluorescence assay that measures the reduction of a dye (resazurin) into a fluorescent end product (resorufin) by metabolically active cells—viable cells) (Promega, CA). The GI50 of each candidate was determined by fitting the relative viability of the cells to the drug concentration by using a dose-response model in GraphPad software.

In data set [2] the test system is Jurkat cells (normal, over-expressing Bcl-2, or over-expressing Bcl-XL). Put plainly: In vitro cytotoxicity against three Jurkat cell lines (drug resistance). It counts as cell-based. Conditions: Jurkat normal vs Bcl-2 or Bcl-XL over-expressing; FIG. 3, FIG. 7. Here is the method: Compound 1 was further studied for its capability to overcome drug resistance induced by the over-expression of anti-apoptotic Bcl-2 proteins. Specifically, the in vitro cytotoxicity of compound 1 against three Jurkat cells (normal, over-expressing Bcl-2, or over-expressing Bcl-XL) were evaluated.
The ability of compound 3 to overcome the drug resistance induced by the over-expression of anti-apoptotic Bcl-2 proteins by evaluating its cytotoxicity in Bcl-2 or Bcl-XL over-expressing Jurkat cells was also evaluated.
The in vitro cytotoxicity of the test compound was assayed by determining the GI50s (the concentration of the compound required to inhibit cell growth by 50%). In brief, Jurkat cells at a density of 10^4 cells/well were plated in a 96-well plate. A series of 3-fold dilution of the test compound with 1% DMSO in the final cell media was used for the cell treatment (cells treated with media containing 1% DMSO served as a control). An identical set of the test compounds was incubated at 37° C. for the specified time and used along with freshly prepared samples for the cell-viability assay. […]

A short description of data set [3]: Half-life under varying pH conditions. The class given is physicochemical. Conditions: buffer.
For another data set, the system named is caspase-3/-7. Put plainly: Concentration-dependent activation of caspase-3/-7 / mode of cell death. To be noted: 24 hours treatment; FIG. 2. The class given is cell-based. The protocol: Compound 1 was further analyzed for its mechanism to inhibit cell growth as HA 14-1 does. This was characterized for concentration-dependent activation of caspase-3/-7. HA 14-1 was run in parallel for comparison. […] Mechanistically, however, compound 1 induced cell death through two different pathways depending on its concentration, similar to HA 14-1. Between 50-100 μM, compound 1 induces apoptosis as characterized by caspase-3/-7 activation. On the other hand, at >100 μM, compound 1 induced non-apoptotic cell death (no activation of caspase-3/-7). The induction of cell death through apoptosis and non-apoptotic process was further supported by DNA fragmentation studies.

In the next data set the target is T3, Bcl-2 (Homo sapiens, UniProt P10415).
T3 construct: made in house
T3 sequence (P10415 whole entry, species assumed): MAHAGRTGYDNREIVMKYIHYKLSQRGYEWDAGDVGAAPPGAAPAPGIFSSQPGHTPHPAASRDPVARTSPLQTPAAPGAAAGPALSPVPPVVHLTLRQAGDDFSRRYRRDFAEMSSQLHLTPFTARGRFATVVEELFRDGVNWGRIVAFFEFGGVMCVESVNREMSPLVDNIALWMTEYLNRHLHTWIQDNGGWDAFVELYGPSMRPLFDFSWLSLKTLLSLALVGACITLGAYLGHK
The experiment in a line: Fluorescence polarization (FP) competition binding assay, Bcl-2. Conditions: Table 1. The protocol: This was done by using the FP based competition binding assay (see below).
The binding interactions of the test compound with Bcl-2, Bcl-XL and Bcl-w proteins were evaluated using the respective recombinant proteins. […] The assays were conducted via an optimized protocol established in the laboratory using a GENios Pro plate reader (Tecan US, NC) with all assays performed in triplicate, each assay performed twice (see Doshi, J. M.; Tian, D.; Xing, C. J. Med. Chem. 2006, 49, 7731).

Data set [4] in a line: HPLC analysis of decomposition in cell culture media. The class given is physicochemical. To be noted: 48-hour incubation in cell culture media at 37° C.
In data set [5] the test system is Jurkat cells. Put plainly: Sensitization of Jurkat cells to doxorubicin (combination cytotoxicity). It counts as cell-based. To be noted: for synergism with doxorubicin: combination vs each alone, FIG. 4. Here is the method: Finally, compound 1 was analyzed for its capability in sensitizing tumor cells to standard chemotherapies. As HA 14-1 was established to sensitize various tumor cells to doxorubicin, compound 1 was tested in parallel with HA 14-1 for the potential synergism to doxorubicin in Jurkat cells. Briefly, the cytotoxicity of doxorubicin alone, compound 1 alone, or the combination of both to Jurkat cells were evaluated. […] This study established that compound 1 can function as a chemosensitizer in combination cancer therapy. The synergism of compound 1 was further supported by the dose-response potentiation of doxorubicin (FIG. 5).

Data set [6] has as its system Jurkat cells (normal, over-expressing Bcl-2, or over-expressing Bcl-XL). To be noted: Jurkat over-expressing Bcl-2 or Bcl-XL; from Doshi et al. J. Med. Chem. 2006; cited from earlier work.
The mark [7] stands for this setting: Table 3, mean of two independent experiments with triplicate in each, read-out: Ki ± SEM Bcl-w.

Where two headings read alike, the source gives them in different places.

T1 sequence (Q07817 whole entry, species assumed): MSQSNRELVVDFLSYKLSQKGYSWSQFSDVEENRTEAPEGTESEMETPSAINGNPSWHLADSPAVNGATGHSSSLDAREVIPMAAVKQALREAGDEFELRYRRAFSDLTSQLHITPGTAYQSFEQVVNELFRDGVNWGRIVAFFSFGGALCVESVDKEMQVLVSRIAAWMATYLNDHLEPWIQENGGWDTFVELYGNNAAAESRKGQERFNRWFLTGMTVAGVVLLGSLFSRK

On to `CCOC(=O)C1=C(N)Oc2ccc(Br)cc2C1C(C)(C#N)C(=O)OCC` (stereo not drawn) [Compound 3, Ethyl-2-amino-6-bromo-4-(2-cyano-1-ethoxy-1-oxopropan-2-yl)-4H-chromene-3-carboxylate], for which the Ki at Bcl-XL (Table 3, mean of two independent experiments with triplicate in each, read-out: Ki ± SEM Bcl-XL) amounted to 55.4 ± 0.88 µM; on Bcl-w (setting [7]), 49.4 ± 1.76 µM. The “loss of cytotoxicity after incubation” value in the data set on Jurkat cells [1] turned out to be 2.5 fold. Moreover, in data set [2], the “resistance induced by over-expression of Bcl-2 or Bcl-XL” value (“resistance induced by over-expression” below) is “unable to induce any noticeable resistance”. In [3] (pH 6.0), the half-life was determined as 2.75 h.

`CCOC(=O)CC1C(C(=O)OCC)=C(N)Oc2ccc(Br)cc21` (stereo not drawn) [Compound 1, Ethyl-2-amino-6-bromo-4-(2-ethoxy-2-oxoethyl)-4H-chromene-3-carboxylate]: the Ki at Bcl-XL (Table 1, read-out: Ki Bcl-XL) came to 390 µM; on Bcl-w (Table 1, read-out: Ki Bcl-w), 686 µM; on Bcl-2, 858 µM. Moreover, in the data set with caspase-3/-7, the “concentration inducing apoptosis (caspase-3/-7 activation)” value was 50 to 100 µM. The “concentration inducing non-apoptotic cell death (no activation of caspase-3/-7)” value in the data set on caspase-3/-7 was above 100 µM. The “increase of GI50 after incubation” value in the data set with Jurkat cells [1] worked out at 1.2 fold. The “cytotoxicity (inhibition of cell growth) compared with HA 14-1” value in the data set on Jurkat cells [1] (24 hours treatment, FIG. 2) is “less cytotoxic than HA 14-1”. The “resistance induced by over-expression” value in data set [2] is listed as “induced no resistance”. Further, the “decomposition by HPLC” value in data set [4] is given as “no decomposition was detected”. The potentiation of doxorubicin in the data set on Jurkat cells [5] (30 μM compound, FIG. 5) came out at 1.4 fold. Further, the synergism with doxorubicin entry in the data set with Jurkat cells [5] is recorded as “able to synergize doxorubicin”.

For the compound `CCOC(=O)C1=C(N)Oc2ccc(Br)cc2C1C(C#N)C(=O)OCC` (stereo not drawn) [HA 14-1, reference compound], the Ki at Bcl-XL (Table 1, read-out: Ki Bcl-XL) worked out at 58.9 ± 5.3 µM; on Bcl-w (Table 1, read-out: Ki Bcl-w) it was 59.3 ± 5.3 µM; at Bcl-w (setting [7]), 59.3 ± 5.32 µM; at Bcl-2 it was 169 ± 18.9 µM. Also, the “resistance induced by over-expression” value in data set [6] is “show no resistance”. Further, in the data set on Jurkat cells [1], the “increase of GI50 after incubation” value is reported as around 35 fold. In the data set with Jurkat cells [1], the “loss of cytotoxicity after incubation” value turned out to be 10 fold. In addition, the values for the half-life in data set [3] (pH 6.0), in data set [3] (pH 7.0) and in data set [3] (pH 8.0) were 2.09 h, 1.86 h and 1.22 h, respectively. The synergism with doxorubicin result with Jurkat cells [5] is on record as “able to synergize doxorubicin”.

The values are drawn from US8394794B2, “Therapeutic compounds” (Regents of The University of Minnesota, priority 2007, dated 2013).
